In the experiment the target is Human Factor D (Homo sapiens (Human), UniProt P00746). In words: Human Factor D Assay. The class given is biochemical. The settings on record: Human Factor D 80 nM, substrate Z-L-Lys-SBzl, assay according to Example 3. The protocol:
The assay according to Example 3 was used to determine the IC50's of the compounds. Other standard factor D inhibition assays are also available.
Human Factor D (purified from human serum, Complement Technology, Inc.) at 80 nM final concentration is incubated with test compound at various concentrations for 5 min at room temperature in 50 mM Tris, 1M NaCl, pH 7.5. A synthetic substrate Z-L-Lys-SBzl and DTNB (Ellman's reagent) are added to final concentrations of 100 μM each. Absorbance at 405 nm (A405) is recorded at 30 second intervals for 30 min using a microplate spectrophotometer. IC50 values are calculated by nonlinear regression of complement Factor D reaction rates as a function of test compound concentration.

Each structure is given as a SMILES string.

By IC50 is commonly meant the concentration that gives 50% inhibition. Read a low IC50 as higher potency.

Human Factor D, sequence (P00746 26-253): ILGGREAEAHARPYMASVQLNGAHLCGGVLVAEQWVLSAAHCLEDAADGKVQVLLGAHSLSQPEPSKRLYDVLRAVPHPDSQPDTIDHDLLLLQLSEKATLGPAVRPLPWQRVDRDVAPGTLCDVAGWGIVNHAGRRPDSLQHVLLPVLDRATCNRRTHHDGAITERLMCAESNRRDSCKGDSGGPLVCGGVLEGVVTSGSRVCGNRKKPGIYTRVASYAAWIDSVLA

`CC(=O)c1cn(CC(=O)N2[C@H](C(=O)N[C@@H](C)C(F)=C(C)C)C[C@@]3(C)C[C@@H]23)c2c(C)cc(-c3cnc4cc(C)nn4c3)cc12` [Compound 30, (1R,3S,5R)-2-(2-(3-acetyl-7-methyl-5-(2-methylpyr-azolo[1,5-a]pyrimidin-6-yl)-1H-indol-1-yl)acetyl)-N-((S)-3-fluoro-4-methyl-pent-3-en-2-yl)-5-methyl-2-azabicyclo[3.1.0]hexane-3-carboxamide] yielded an IC50 below 1000 nM.

In the case of `CC(=O)c1cn(CC(=O)N2[C@H](C(=O)N[C@@H](C)C(F)=C(C)C)C[C@@]3(C)C[C@@H]23)c2c(C)cc(-c3cnc(C)nc3)cc12` [Compound 31, (1R,3S,5R)-2-(2-(3-acetyl-7-methyl-5-(2-methylpyr-imidin-5-yl)-1H-indol-1-yl)acetyl)-N-((S)-3-fluoro-4-methylpent-3-en-2-yl)-5-methyl-2-azabicyclo[3.1.0] hexane-3-carboxamide], the IC50 was below 1000 nM.

`CC(=O)c1cn(CC(=O)N2[C@H](C(=O)N[C@@H](C)C(F)=C(C)C)C[C@@]3(C)C[C@@H]23)c2c(C)nc(-c3cnc4cc(C)nn4c3)cc12` [Compound 32, (1R,3S,5R)-2-(2-(3-acetyl-7-methyl-5-(2-methylpyr-azolo[1,5-a]pyrimidin-6-yl)-1H-pyrrolo[2,3-c]pyr-idin-1-yl)acetyl)-N-((S)-3-fluoro-4-methylpent-3-en-2-yl)-5-methyl-2-azabi-cyclo[3.1.0]hexane-3-car-boxamide] came in with an IC50 below 1000 nM.

`CC(=O)c1cn(CC(=O)N2C[C@@](F)(CF)CC2C(=O)Nc2nc(C(F)(F)F)ccc2C#N)c2c(C)nc(-c3cnc4cc(C)nn4c3)cc12` (stereo partly drawn) [Compound 33, (4R)-1-(2-(3-acetyl-7-methyl-5-(2-methylpyr-azolo[1,5-a]pyrimidin-6-yl)-1H-pyrrolo[2,3-c]pyr-idin-1-yl)acetyl)-N-(3-cyano-6-(trifluoromethyl)-pyridin-2-yl)-4-fluoro-4-(fluoromethyl)pyrrolidine-2-carboxamide] yielded an IC50 below 1000 nM.

The compound `CC(=O)c1cn(CC(=O)N2C[C@H](F)C[C@H]2C(=O)N[C@H](C)C(F)=C(C)C)c2c(C)cc(-c3cnc4cc(C)nn4c3)cc12` [Compound 34, (2S,4R)-1-(2-(3-acetyl-7-methyl-5-(2-methylpyr-azolo[1,5-a]pyrimidin-6-yl)-1H-indol-1-yl)acetyl)-4-fluoro-N-((R)-3-fluoro-4-methylpent-3-en-2-yl)-pyrrolidine-2-carboxamide] had an IC50 below 1000 nM.

In turn, `CC(=O)c1cn(CC(=O)N2C[C@H]3C[C@H]3[C@H]2C(=O)N[C@H](C)C(F)=C(C)C)c2c(C)cc(-c3cnc4cc(C)nn4c3)cc12` [Compound 35, (1R,2S,5S)-3-(2-(3-acetyl-7-methyl-5-(2-methylpyr-azolo[1,5-a]pyrimidin-6-yl)-1H-indol-1-yl)acetyl)-N-((R)-3-fluoro-4-methyl-pent-3-en-2-yl)-3-azabi-cyclo[3.1.0]hexane-2-car-boxamide] gave an IC50 below 1000 nM.

As to `CC(=O)c1cn(CC(=O)N2[C@H](C(=O)N[C@H](C)C(F)=C(C)C)C[C@@]3(C)C[C@@H]23)c2c(C)nc(-c3cnc(C)nc3)cc12` [Compound 36, (1R,3S,5R)-2-(2-(3-acetyl-7-methyl-5-(2-methylpyr-imidin-5-yl)-1H-pyrrolo [2,3-c]pyridin-1-yl)acetyl)-N-((R)-3-fluoro-4-methyl-pent-3-en-2-yl)-5-methyl-2-azabicyclo[3.1.0]hexane-3-carboxamide], the half-maximal inhibitory concentration (IC50) is below 1000 nM.

The compound `CC(=O)c1cn(CC(=O)N2C[C@H](F)C[C@H]2C(=O)N[C@@H](C)C(F)=C(C)C)c2c(C)cc(-c3cnc4cc(C)nn4c3)cc12` [Compound 37, (2S,4R)-1-(2-(3-acetyl-7-methyl-5-(2-methylpyr-azolo[1,5-a]pyrimidin-6-yl)-1H-indol-1-yl)acetyl)-4-fluoro-N-((S)-3-fluoro-4-methylpent-3-en-2-yl)pyr-rolidine-2-carboxamide] came in with an IC50 below 1000 nM.

Compound `CC(=O)c1cn(CC(=O)N2C[C@H]3C[C@H]3[C@H]2C(=O)N[C@@H](C)C(F)=C(C)C)c2c(C)cc(-c3cnc4cc(C)nn4c3)cc12` [Compound 38, (1R,2S,5S)-3-(2-(3-acetyl-7-methyl-5-(2-methylpyr-azolo[1,5-a]pyrimidin-6-yl)-1H-indol-1-yl)acetyl)-N-((S)-3-fluoro-4-methyl-pent-3-en-2-yl)-3-azabi-cyclo[3.1.0]hexane-2-car-boxamide] yielded a half-inhibitory concentration (IC50) below 1000 nM.

With `CC(=O)c1cn(CC(=O)N2[C@H](C(=O)N[C@@H](C)C(F)=C(C)C)C[C@@]3(C)C[C@@H]23)c2c(C)nc(-c3cnc(C)nc3)cc12` [Compound 39, (1R,3S,5R)-2-(2-(3-acetyl-7-methyl-5-(2-methylpyr-imidin-5-yl)-1H-pyrrolo [2,3-c]pyridin-1-yl)acetyl)-N-((S)-3-fluoro-4-methyl-pent-3-en-2-yl)-5-methyl-2-azabicyclo[3.1.0]hexane-3-carboxamide], the concentration for half-maximal inhibition (IC50) was below 1000 nM.

`COCc1ccc(C(F)(F)F)nc1NC(=O)[C@@H]1C[C@@]2(C)C[C@H]2N1C(=O)Cn1cc(C(C)=O)c2cc(-c3ccc4nc(C)nn4c3)cc(C)c21` [Compound 40, (1R,3S,5R)-2-(2-(3-acetyl-7-methyl-5-(2-methyl-[1,2,4]triazolo[1,5-a]pyr-idin-6-yl)-1H-indol-1-yl)-acetyl)-N-(3-(methoxy-methyl)-6-(trifluorometh-yl)pyridin-2-yl)-5-methyl-2-azabicyclo[3.1.0]hexane-3-carboxamide] registered a concentration for half-maximal inhibition (IC50) below 1000 nM.

`COCc1ccc(C(F)(F)F)nc1NC(=O)[C@@H]1C[C@@]2(C)C[C@H]2N1C(=O)Cn1cc(C(C)=O)c2cc(-c3cnc(C)nc3)nc(C)c21` [Compound 41, (1R,3S,5R)-2-(2-(3-acetyl-7-methyl-5-(2-methylpyr-imidin-5-yl)-1H-pyrrolo [2,3-c]pyridin-1-yl)acetyl)-N-(3-(methoxymethyl)-6-(trifluoromethyl)pyridin-2-yl)-5-methyl-2-azabicyclo [3.1.0]hexane-3-carbox-amide] yielded an IC50 below 1000 nM.

As for `CC(=O)c1cn(CC(=O)N2[C@H](C(=O)Nc3nc(C(F)(F)F)ccc3Cl)C[C@@]3(C)C[C@@H]23)c2c(C)nc(-c3cnc(C)nc3)cc12` [Compound 42, (1R,3S,5R)-2-(2-(3-acetyl-7-methyl-5-(2-methylpyr-imidin-5-yl)-1H-pyrrolo [2,3-c]pyridin-1-yl)acetyl)-N-(3-chloro-6-(trifluoro-methyl)pyridin-2-yl)-5-methyl-2-azabicyclo[3.1.0] hexane-3-carboxamide], the IC50 is below 1000 nM.

For the compound `CC(=O)c1cn(CC(=O)N2[C@H](C(=O)Nc3nc(C(F)(F)F)ccc3C)C[C@@]3(C)C[C@@H]23)c2c(CO)cc(-c3cnc4cc(C)nn4c3)cc12` [Compound 43, (1R,3S,5R)-2-(2-(3-acetyl-7-(hydroxymethyl)-5-(2-methylpyrazolo[1,5-a]pyr-imidin-6-yl)-1H-indol-1-yl)acetyl)-5-methyl-N-(3-methyl-6-(trifluorometh-yl)pyridin-2-yl)-2-azabi-cyclo[3.1.0]hexane-3-car-boxamide], the concentration for half-maximal inhibition (IC50) was below 1000 nM.

In turn, `CC(=O)c1cn(CC(=O)N2[C@H](C(=O)Nc3nc(C(F)(F)F)ccc3C)C[C@@]3(C)C[C@@H]23)c2c(C)c(F)c(-c3cnc(C)nc3)cc12` [Compound 44, (1R,3S,5R)-2-(2-(3-acetyl-6-fluoro-7-methyl-5-(2-methylpyrimidin-5-yl)-1H-indol-1-yl)acetyl)-5-meth-yl-N-(3-methyl-6-(tri-fluoromethyl)pyridin-2-yl)-2-azabicyclo[3.1.0] hexane-3-carboxamide] had an IC50 below 1000 nM.

Compound `CC(=O)c1cn(CC(=O)N2[C@H](C(=O)Nc3cncc(C(F)(F)F)n3)C[C@@]3(C)C[C@@H]23)c2c(C)cc(-c3cnc(C)nc3)cc12` [Compound 45, (1R,3S,5R)-2-(2-(3-acetyl-7-methyl-5-(2-methylpyr-imidin-5-yl)-1H-indol-1-yl)acetyl)-5-methyl-N-(6-(trifluoromethyl)pyrazin-2-yl)-2-azabicyclo[3.1.0] hexane-3-carboxamide] showed an IC50 below 1000 nM.

On to `CC(=O)c1cn(CC(=O)N2[C@H](C(=O)Nc3nc(C(F)(F)F)ccc3C)C[C@@]3(C)C[C@@H]23)c2c(CF)cc(-c3cnc4cc(C)nn4c3)cc12` [Compound 46, (1R,3S,5R)-2-(2-(3-acetyl-7-(fluoromethyl)-5-(2-methylpyrazolo[1,5-a]pyr-imidin-6-yl)-1H-indol-1-yl)acetyl)-5-methyl-N-(3-methyl-6-(trifluorometh-yl)pyridin-2-yl)-2-azabi-cyclo[3.1.0]hexane-3-car-boxamide], for which the IC50 was below 1000 nM.

Compound `CC(=O)c1cn(CC(=O)N2[C@H](C(=O)Nc3nc(Br)ccc3Cl)C[C@@]3(C)C[C@@H]23)c2c(C)cc(-c3cnc4cc(C)nn4c3)cc12` [Compound 47, (1R,3S,5R)-2-(2-(3-acetyl-7-methyl-5-(2-methylpyr-azolo[1,5-a]pyrimidin-6-yl)-1H-indol-1-yl)acetyl)-N-(6-bromo-3-chloropyr-idin-2-yl)-5-methyl-2-aza-bicyclo[3.1.0]hexane-3-carboxamide] returned an IC50 below 1000 nM.

Regarding `CC(=O)c1cn(CC(=O)N2[C@H](C(=O)Nc3nc(C(F)(F)F)ccc3C)C[C@@]3(C)C[C@@H]23)c2c(C)c(F)c(-c3cnc4cc(C)nn4c3)cc12` [Compound 49, (1R,3S,5R)-2-(2-(3-acetyl-6-fluoro-7-methyl-5-(2-methylpyrazolo[1,5-a]pyr-imidin-6-yl)-1H-indol-1-yl)acetyl)-5-methyl-N-(3-methyl-6-(trifluorometh-yl)pyridin-2-yl)-2-azabi-cyclo[3.1.0]hexane-3-car-boxamide], the IC50 is below 1000 nM.

The record behind these values is patent publication US20250197403A1, “HETEROARYL COMPOUNDS FOR TREATMENT OF COMPLEMENT FACTOR D MEDIATED DISORDERS” (Achillion Pharmaceuticals, Inc., priority 2020, published 2025).
